“Also recorded” adds a separate entry of the source. Bridges are numbered along the chain shown (N, C = ends). Where no end group is shown, it is not given here.
Tests used:
Pdx1-expressing α-cells = experiment: Insulin production in Pdx1-expressing α-cells of adult mice with normal β-cell mass after in vivo inhibition of insulin signaling; conditions: in vivo administration to mice expressing Pdx1 in α-cells; FIG. 7B
Method: (§1) DT (Sigma) was administrated by intra-peritoneal (i.p.) injections as previously described (Thorel et al., 2010, supra). DOX (1 mg/ml; Sigma) was added to the drinking water. S961 (Novo-Nordisk) (Vikram and Jena, 2010, Biochem Biophys Res Commun. 398(2):260-5) was injected intravenously (i.v.) twice a day at 200-nmol/kg-body weight, for 4 consecutive days. PPP (Santa-Cruz) and Wortmannin (Sigma) were injected i.p. once a day for 5 consecutive days at 10-mg/kg-body weight and 1-mg/kg-body weight, respectively. Mice received subcutaneous insulin pellets (Linbit) one week apart, if glycaemia exceeded 25 mM.
Pancreatic glucagon and insulin dosages (immunoassays), gene expression analyses by real time PCR as well as histological and morphometric analyses were performed as described (Herrera et al, 1991, Development. 113(4):1257-65; Strom et al, 2007, Development. 134(15):2719-25).
Cryostat sections were 10 μm-thick. The antibodies used were: rabbit and guinea pig anti-Pdx1 (kind gift of C. Wright, 1/5000 and 1/750 respectively), guinea pig anti-porcine insulin (DAKO, 1/400), mouse anti-porcine glucagon (1/1000), mouse anti-somatostatin (BCBC Ab1985, 1/200), rabbit anti-GFP (Molecular Probes, 1/400), rabbit anti-Cpeptide1 (BCBC Ab1044, 1/500), rabbit anti-Cpeptide2 (BCBC Ab1042, 1/500). […]

[1] = Peripheral action of S961 administered in vivo (glycemia); parameters: species or system mice; conditions: data not shown
Method: as §1
To test whether insulin deprivation in absence of β-cell loss can prime α-cells to insulin production, adult mice in which α-cells express Pdx1 (cPdx1OE) were treated with an insulin receptor antagonist, termed S961 (Novo Nordisk), to blunt insulin signaling in peripheral tissues as well as in pancreatic islets (FIG. 7A).
A 5-day treatment to healthy adult mice having a normal β-cell mass led to insulin production in some 18% of Pdx1-expressing α-cells (FIG. 7B). […] Next, the insulin receptor was conditionally inactivated in adult α-cells to assess whether local inhibition of insulin signaling, exclusively at the level of α-cells, is sufficient to prime those cells to insulin production. […]

insulin receptor = target: T1, insulin receptor (Rattus norvegicus, UniProt P15127); conditions: Vikram and Jena, 2010; cited from earlier work
T1 construct: host or cells: rats, in vivo (endogenous receptor)
T1 sequence (P15127 27-759 limits assumed): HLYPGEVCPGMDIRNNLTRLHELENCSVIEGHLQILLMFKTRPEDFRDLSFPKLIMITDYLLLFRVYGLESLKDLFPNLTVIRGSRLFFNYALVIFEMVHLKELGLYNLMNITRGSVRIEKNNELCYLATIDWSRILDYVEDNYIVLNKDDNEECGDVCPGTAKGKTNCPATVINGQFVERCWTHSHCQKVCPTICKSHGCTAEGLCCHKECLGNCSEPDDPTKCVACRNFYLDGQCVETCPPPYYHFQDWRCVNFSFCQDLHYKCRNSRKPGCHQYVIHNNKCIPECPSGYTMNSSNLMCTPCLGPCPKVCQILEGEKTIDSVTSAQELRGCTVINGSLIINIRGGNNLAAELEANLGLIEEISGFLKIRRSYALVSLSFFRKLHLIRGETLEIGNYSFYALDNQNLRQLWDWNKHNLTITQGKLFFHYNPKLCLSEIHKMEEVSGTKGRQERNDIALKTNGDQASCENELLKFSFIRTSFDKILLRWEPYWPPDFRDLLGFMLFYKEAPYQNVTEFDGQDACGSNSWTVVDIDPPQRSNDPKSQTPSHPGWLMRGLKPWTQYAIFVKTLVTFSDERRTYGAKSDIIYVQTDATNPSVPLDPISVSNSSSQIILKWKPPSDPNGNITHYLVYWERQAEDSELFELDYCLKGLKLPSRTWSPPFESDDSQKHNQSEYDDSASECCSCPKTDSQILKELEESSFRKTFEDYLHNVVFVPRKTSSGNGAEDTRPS
T1 sequence (P15127 764-1383 partner limits assumed): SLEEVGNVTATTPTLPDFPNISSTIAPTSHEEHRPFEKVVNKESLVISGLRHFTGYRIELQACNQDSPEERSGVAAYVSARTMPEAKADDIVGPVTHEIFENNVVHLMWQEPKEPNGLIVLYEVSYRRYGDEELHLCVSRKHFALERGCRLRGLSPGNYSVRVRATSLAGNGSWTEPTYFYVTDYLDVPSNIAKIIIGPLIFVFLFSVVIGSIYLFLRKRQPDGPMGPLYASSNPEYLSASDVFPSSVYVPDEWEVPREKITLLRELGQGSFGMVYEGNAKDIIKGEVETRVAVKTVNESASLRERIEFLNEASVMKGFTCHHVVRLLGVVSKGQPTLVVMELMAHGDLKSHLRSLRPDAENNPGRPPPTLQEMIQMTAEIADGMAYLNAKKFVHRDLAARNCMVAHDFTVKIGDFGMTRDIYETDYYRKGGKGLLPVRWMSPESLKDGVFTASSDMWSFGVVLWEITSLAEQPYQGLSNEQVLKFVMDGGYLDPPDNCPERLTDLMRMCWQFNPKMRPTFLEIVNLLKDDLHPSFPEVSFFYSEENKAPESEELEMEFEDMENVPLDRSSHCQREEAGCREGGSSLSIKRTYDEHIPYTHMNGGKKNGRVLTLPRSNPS

Compound | insulin production triggered in Pdx1-expressing α-cells (in words) (Pdx1-expressing α-cells) | effect on glycemia when administered in vivo [1] | effects of S961 in rats (insulin receptor)
COC[C@H]1OC(=O)c2coc3c2[C@@]1(C)C1=C(C3=O)[C@@H]2CCC(=O)[C@@]2(C)C[C@H]1OC(C)=O [wortmannin] | triggers insulin production with similar efficiency; also recorded: produce insulin | – | –
GSLDESFYDWFERQLGGGSGGSSLEEEWAQIQCEVWGRGCPSY (disulfide 33-40) [S961] | – | induces hyperglycemia | hyperglycemia, hyperinsulinemia, insulin-resistance and depletion of energy stores
